Values joined by “and” are separate entries in the source; they are usually repeats but may differ in a detail not shown here. Identical values can stand only once.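 Test compounds were applied to cells in 96-well plates for 48 hours at 5 doses. GI50: concentration for 50% inhibition of growth. TGI: concentration producing complete growth inhibition.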
Experiments:
Experiment in all cases: inhibition of tumour cell growth, NCI panel, 48 h
A549 NSCLC = system: A549 NSCLC
BT-549 breast = system: BT-549 breast
HCC-2998 colon = system: HCC-2998 colon
HS 578T breast = system: HS 578T breast
HT29 colon = system: HT29 colon
IGROV1 ovarian = system: IGROV1 ovarian
M14 melanoma = system: M14 melanoma
MDA-N = system: MDA-N
NCI-H460 lung = system: NCI-H460 lung
OVCAR-3 ovarian = system: OVCAR-3 ovarian
SF-268 CNS = system: SF-268 CNS
SK-MEL-28 melanoma = system: SK-MEL-28 melanoma
SNB-19 CNS = system: SNB-19 CNS
TK-10 renal = system: TK-10 renal
UACC-257 melanoma = system: UACC-257 melanoma
UO-31 renal = system: UO-31 renal
SK-OV-3 ovarian = system: SK-OV-3 ovarian

Compound | TGI (A549 NSCLC) | TGI (BT-549 breast) [µM] | TGI (HCC-2998 colon) | TGI (HS 578T breast) [µM] | TGI (HT29 colon) | TGI (IGROV1 ovarian) | TGI (M14 melanoma) | TGI (MDA-N) [µM] | TGI (NCI-H460 lung) | TGI (OVCAR-3 ovarian) | TGI (SF-268 CNS) | TGI (SK-MEL-28 melanoma) | TGI (SNB-19 CNS) | TGI (TK-10 renal) | TGI (UACC-257 melanoma) | TGI (UO-31 renal) | TGI (SK-OV-3 ovarian) | GI50 (HT29 colon) | GI50 (NCI-H460 lung)
O=C(NCCCCCCCCNC(=O)Nc1cccc2ccccc12)Nc1cccc2ccccc12 | > 100 µM | > 100 | > 100 µM | > 100 | > 100 µM | > 100 µM | > 100 µM | > 100 | 13.4 µM | > 100 µM | 45.8 µM | > 100 µM | > 100 µM | > 100 µM | > 100 µM | 47.5 µM | – | – | –
NC1CCN(c2nc3ccccc3c3c2CCCC3)CC1 | 23.5 µM | 25.9 | 3.2 µM | > 100 | 5.27 µM | 19.5 µM | 3.84 µM | 9.6 | 13.5 µM | 28.1 µM | 33 µM | 10.6 µM | 22.7 µM | 23.2 µM | 4.31 µM | 12.2 µM | 27.1 µM | – | –
Cc1nc(C(N)=S)sc1C(=O)CC(=O)C(=O)Nc1ccc(Br)cc1 | > 100 µM | > 100 | – | > 100 | > 100 µM | > 100 µM | > 100 µM | > 100 | > 100 µM | > 100 µM | > 100 µM | > 100 µM | – | > 100 µM | > 100 µM | > 100 µM | > 100 µM | – | –
O=C(C[C@@H]1CCCN2CCCC[C@H]12)N1c2ccccc2Sc2ccc(Cl)cc21 | 30.9 µM | 28 | – | 38.5 | 22.8 µM | 25.6 µM | 17.9 µM | 30.9 | 28.3 µM | 31.9 µM | 42.8 µM | 26.3 µM | 31.1 µM | 35.5 µM | 25.6 µM | 25.9 µM | – | – | –
N=S(c1ccccc1[N+](=O)[O-])c1ccccc1[N+](=O)[O-] | 9.72 µM and 15.6 µM | 3.13 | 7.11 µM and 9.66 µM | > 100 | 5.16 µM and 8.69 µM | 4.49 µM and 6.5 µM | 8.88 µM and 16.4 µM | 2.83 | 21.5 µM and 32 µM | 1.63 µM and 3.05 µM | 11.9 µM and 5.94 µM | 10.9 µM and 11.3 µM | 22.5 µM and 20.9 µM | 7.42 µM and 6.53 µM | 6.51 µM and 10.1 µM | 3.94 µM and 7.44 µM | 17 µM and 15.7 µM | 1540 nM and 3830 nM | 7.83 µM and 14.4 µM
CCC1C(NC(=O)OC)C(=O)N1[C@@H](C)c1ccccc1 (stereo not given in full) | – | > 100 | > 100 µM | > 100 | > 100 µM | > 100 µM | > 100 µM | > 100 | > 100 µM | > 100 µM | > 100 µM | > 100 µM | > 100 µM | > 100 µM | > 100 µM | > 100 µM | > 100 µM | – | –
Cc1c(-c2ccccc2)c(C#N)c2nnn(-c3ccc(Cl)cc3)c(=O)n12 | > 100 µM | > 100 | > 100 µM | > 100 | > 100 µM | > 100 µM | > 100 µM | > 100 | > 100 µM | 52.2 µM | > 100 µM | > 100 µM | > 100 µM | > 100 µM | > 100 µM | > 100 µM | > 100 µM | – | –
